Assay results reported in PubChem BioAssay (NCI).
Several values for one entry are separate records, joined by “and”; a condition that tells them apart may be missing. Equal entries are not always repeated.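 Following 48 hours of exposure in 96-well plates, responses at five concentrations were used to interpolate endpoints linearly. GI50 marks 50% less growth. TGI: total growth inhibition.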

Columns and labels:
Test in all cases: inhibition of tumour cell growth, NCI panel, 48 h
UACC-257 melanoma = test system: UACC-257 melanoma
LOX IMVI melanoma = test system: LOX IMVI melanoma
COLO 205 colon = test system: COLO 205 colon
OVCAR-5 ovarian = test system: OVCAR-5 ovarian
MOLT-4 leukemia = test system: MOLT-4 leukemia
A498 renal = test system: A498 renal
HOP-62 NSCLC = test system: HOP-62 NSCLC
NCI/ADR-RES ovarian = test system: NCI/ADR-RES ovarian
SK-MEL-2 melanoma = test system: SK-MEL-2 melanoma
A549 NSCLC = test system: A549 NSCLC

Compound | GI50 (UACC-257 melanoma) [µM] | TGI (UACC-257 melanoma) [µM] | GI50 (LOX IMVI melanoma) [µM] | TGI (LOX IMVI melanoma) [µM] | GI50 (COLO 205 colon) [µM] | TGI (COLO 205 colon) | GI50 (OVCAR-5 ovarian) [µM] | TGI (OVCAR-5 ovarian) [µM] | GI50 (MOLT-4 leukemia) [µM] | TGI (MOLT-4 leukemia) [µM] | GI50 (A498 renal) [µM] | TGI (A498 renal) | GI50 (HOP-62 NSCLC) [µM] | TGI (HOP-62 NSCLC) | GI50 (NCI/ADR-RES ovarian) [µM] | TGI (NCI/ADR-RES ovarian) [µM] | GI50 (SK-MEL-2 melanoma) [µM] | TGI (SK-MEL-2 melanoma) | GI50 (A549 NSCLC) [µM] | TGI (A549 NSCLC) [µM]
O=C(NCCN1CCOCC1)Nc1ccc(-c2cc3c(Nc4ccc(Oc5cccc(C(F)(F)F)c5)c(Cl)c4)ncnc3s2)cc1 | 0.927 | 1.84 | 0.841 | 1.58 | 1.25 | 2.95 µM | 1.66 | 6.32 | 1.22 | 3.75 | 2.04 | 7.79 µM | 1.46 | 5.93 µM | 6.74 | 19.9 | 1.25 | 2.98 µM | 1.04 | 2.42
COc1cccc2c1cc([N+](=O)[O-])c1c(C(=O)O)cc3c(c12)OCO3 | 28.7 | > 100 | 26.2 | > 100 | 1.12 | 2.8 µM and 2.97 µM | 22.3 | > 87.6 | 40.9 | > 100 | 16 | 32.9 µM and 83.4 µM | 28.4 | 97.8 µM and > 76.6 µM | 42.8 | > 100 | 22.9 | 52.3 µM and > 100 µM | 25.8 | > 100
COc1ccc(C2C(c3ccccc3)C(=O)N2c2cc(OC)c(OC)c(OC)c2)cc1I (stereo not given) | > 100 | > 100 | 0.457 | > 100 | 0.228 | 0.648 µM | 0.526 | > 100 | 0.337 | > 100 | 0.241 | 0.777 µM | 0.57 | > 100 µM | 0.319 | > 100 | 0.572 | > 100 µM | 0.479 | > 100
CCCCCCNC(=O)Oc1ccc(/C(=C(\C)c2ccccc2)c2ccc(OCCN3CCCCC3)cc2)cc1 | 2.69 | 9.16 | 1.71 | 3.09 | 1.78 | 3.57 µM | 9.75 | 24.1 | 2.68 | 9.66 | 7.46 | 21.6 µM | 3.22 | 10.9 µM | 3.12 | 12.7 | 2 | 4.33 µM | 4.31 | 18.6
O=C(Nc1cccc(C(F)(F)F)c1)c1cccc(NC2=C(Cl)C(=O)N(Cc3ccccc3)C2=O)c1 | 12.4 | 38.5 | 3.92 | 57.5 | 32.3 | > 100 µM | > 100 | > 100 | 2.73 | > 100 | 40.3 | 90.7 µM | 40.1 | > 100 µM | 18.1 | 53.5 | 14.6 | 40.1 µM | 17 | > 100
C=C1C(=O)O[C@H]2[C@H]1[C@H](OC(=O)/C(C)=C\C)C[C@]1(CO1)[C@@H]1[C@H](OC(C)=O)C=C(C)[C@]21O | – | 39.2 | – | 29 | – | 19.4 µM | – | > 59.1 | – | 25.6 | – | > 100 µM | – | > 100 µM | – | 57.4 | – | > 58.3 µM | – | > 100
O=C(O)c1ccc(-c2ccc(C(=O)O)cc2I)c(I)c1 | > 100 | > 100 | > 100 | > 100 | > 100 | > 100 µM | > 100 | > 100 | > 100 | > 100 | > 100 | > 100 µM | > 100 | > 100 µM | > 100 | > 100 | > 100 | > 100 µM | > 100 | > 100
CS(=O)(=O)OCCN(CCOS(C)(=O)=O)c1ccc(C=Nc2ccc3oc(=O)ccc3c2)cc1 | – | 26.9 | – | 29.9 | – | 10.3 µM | – | 28.9 | – | 15.4 | – | 4.67 µM | – | 34.1 µM | – | 62.5 | – | 37.7 µM | – | 35.3
O=C(c1ccco1)c1c(C(F)(F)F)nc2cc(C(F)(F)F)ccc2[n+]1[O-] | > 100 | > 100 | 48.1 | > 100 | > 100 | > 100 µM | 67.8 | > 100 | > 100 | > 100 | 20.5 | 63.8 µM | 22.9 | > 100 µM | 67.2 | > 100 | 69.3 | > 100 µM | 48.4 | > 100
CCOC(=O)N1C/C(=C/c2ccc(OC)cc2)C(=O)/C(=C/c2ccc(OC)cc2)C1 | 2.88 | 11.4 | 0.979 | 2.84 | 2.18 | 5.28 µM | 4.23 | 21.6 | 3.99 | > 100 | 3.13 | > 29 µM | 2.1 | 5.11 µM | 3.35 | > 100 | 13.5 | > 56.3 µM | 2.33 | 6.96
Cc1c2ncccc2nc2[nH]c3ccc(OCCN(C)C)cc3c12 | 10.4 | 28.5 | 1.54 | 5.78 | 1.5 | 7.94 µM | 2.81 | 19.2 | 0.6 | 12.5 | 5.18 | 20 µM | 1.73 | 13.7 µM | 1.1 | 17.4 | 3.03 | 15.1 µM | 1.87 | 10.3
COc1ccc2c(c1OC)-c1c(c3ccc([N+](=O)[O-])cc3c(=O)n1CCCN=[N+]=[N-])C2=O | 17.2 | > 100 | 5.99 | > 100 | > 100 | > 100 µM | > 100 | > 100 | 3.12 | > 100 | 82.3 | > 100 µM | 5.02 | 92.8 µM | 12.2 | > 100 | > 100 | > 100 µM | 4.18 | > 100
CCn1c(-c2nonc2N)nc2c(C#CC(C)(C)O)nc(O[C@@H](CN)c3ccccc3)cc21 | 0.611 | 1.54 | 0.14 | 1.32 | 0.123 | 0.646 µM | 0.859 | 15.8 | 0.11 | 1.97 | 0.00553 | 0.171 µM | 0.294 | 1.98 µM | 6.38 | 25 | 0.188 | 0.737 µM | 0.108 | 3.7
COc1ccc(NC(=O)c2sc3nc(C)c(C(O)c4ccc(OC)cc4)cc3c2N)cc1 (stereo not given) | 11.1 | > 50 | 1.4 | > 50 | 1.57 | 31.6 µM | 1.87 | > 50 | 2.17 | > 50 | 0.156 | 39.1 µM | 2.03 | > 50 µM | 1.28 | 4.41 | 1.74 | > 50 µM | 0.258 | > 50
O=[N+]([O-])c1cc(Cl)cc2c1nc(NCCO)c1ccccc12 | – | 54.8 | – | > 100 | – | 0.236 µM | – | > 63 | – | 34 | – | 56.4 µM | – | > 100 µM | – | > 100 | – | 43.8 µM | – | > 100
Cc1ccc(C2SCc3nc4ccc(C(=O)c5ccccc5)cc4n32)cc1 (stereo not given) | 22 | > 61.9 | > 36.7 | > 100 | 6.18 | > 100 µM | 21.5 | 55.2 | 14.8 | > 100 | 13.5 | 36.3 µM | 14.8 | 39.6 µM | 2.37 | 8.38 | 12.1 | 47.3 µM | 5.99 | > 63.3
COc1ccc(/C(Cl)=C(\C=O)c2ccc(OC)c(OC)c2)cc1OC | – | > 66.3 | – | > 100 | – | > 100 µM | – | > 48.7 | – | > 100 | – | > 100 µM | – | > 100 µM | – | > 100 | – | > 100 µM | – | > 100
